{"source": "patent US20120141461A1", "about": "“COMPOSITIONS AND METHODS FOR DIAGNOSING AND TREATING FIBROTIC DISORDERS” (THE REGENTS OF THE UNIVERSITY OF MICHIGAN, priority 2009, published 2012)", "molecules": {"B1": {"name": "catalase: an enzyme which reduces H2O2 to H2O (protein, UniProt P04040 2-527, looked up)", "Catalase": "ADSRDPASDQMQHWKEQRAAQKADVLTTGAGNPVGDKLNVITVGPRGPLLVQDVVFTDEMAHFDRERIPERVVHAKGAGAFGYFEVTHDITKYSKAKVFEHIGKKTPIAVRFSTVAGESGSADTVRDPRGFAVKFYTEDGNWDLVGNNTPIFFIRDPILFPSFIHSQKRNPQTHLKDPDMVWDFWSLRPESLHQVSFLFSDRGIPDGHRHMNGYGSHTFKLVNANGEAVYCKFHYKTDQGIKNLSVEDAARLSQEDPDYGIRDLFNAIATGKYPSWTFYIQVMTFNQAETFPFNPFDLTKVWPHKDYPLIPVGKLVLNRNPVNYFAEVEQIAFDPSNMPPGIEASPDKMLQGRLFAYPDTHRHRLGPNYLHIPVNCPYRARVANYQRDGPMCMQDNQGGAPNYYPNSFGAPEQQPSALEHSIQYSGEVRRFNTANDDNVTQVRAFYVNVLNEEQRKRLCENIAGHLKDAQIFIQKKAVKNFTEVHPDYGSHIQALLDKYNAEKPKNAIHTFVQSGSHLAAREKANL"}}, "key": {"[1]": {"system": "C57BL/6 mice", "test": "Murine model of bleomycin-induced lung injury/fibrosis", "type": "in vivo, mouse", "procedure": "RNA was extracted and expression of NOX4 mRNA analyzed by real-time PCR; (b) C57BL/6 mice were administered intra-tracheal (IT) bleomycin on day 0.\nC57BL/6J mice (6-8 weeks of age; Jackson Laboratories, Bar Harbor, Me.) were anesthetized with intraperitoneal injection of ketamine and xylazine. Intra-tracheal bleomycin (0.025 U) or FITC (4.67 mg/ml suspension in PBS) was administered to induce lung injury. The University of Michigan Committee on the Use and Care of Animals approved the animal protocols.\n(§1) For in vitro RNAi, cells were transfected with single duplexes targeting NOX4 or non-targeting control siRNA (100 nM) using Lipofectamine-2000 reagent. For in vivo RNAi studies, NOX4 siRNA or control nontargeting siRNA (Dharmacon Inc.) were administered at a dose of ˜50 μg per mouse by intratracheal injection with bleomycin, FITC, or saline, in a total volume of 50 μl using a 26-gauge needle.\n(§2) Cell lysates were prepared in RIPA buffer, subjected them to SDS-PAGE under reducing conditions and performed western immunoblotting as previously described (Horowitz et al. J Biol Chem 279, 1359-1367 (2004), herein incorporated by reference in its entirety).\nAcid-soluble collagen was measured in cell culture supernatants or whole lung homogenates using the Sircol assay as previously described (Vittal et al. Am J Pathol 166, 367-375 (2005), herein incorporated by reference in its entirety).\nMurine whole lungs were homogenized in PBS, then acidified (by adding an equal volume of 12 N HCl), hydrolyzed (by heating at 120° C. for 24 h), and processed samples for hydroxyline measurements as previously described 29. Lung histology and immunohistochemical staining Paraffin embedded tissue sections were processed for lung histology and immunohistochemical staining as previously described described (Vittal et al. Am J Pathol 166, 367-375 (2005), herein incorporated by reference in its entirety)."}, "[2]": {"system": "human fetal lung mesenchymal cells (hFLMCs)", "test": "Myofibroblast differentiation markers in hFLMCs in 3D-collagen matrix, Western immunoblotting", "type": "cell-based", "details": "catalase 750 U/ml, TGF-β1 2 ng/ml x 16 h", "procedure": "(§3) Collagen gels were reconstituted by mixing 1 part of 3 mg/ml neutralized rat tail collagen type 1 and two parts of cell suspension in serum-free media. Cell suspensions were seeded at a density of 200,000 cells per ml into 24-well tissue culture plates and allowed the gels to polymerize at 37° C. for 1 h before adding 1 ml of media. Gels were incubated overnight prior to treatments, and gently detached the edge of the gels from the walls of the well using a sterile spatula. Gels were photographed and gel area was measured using ImageJ (NIH) software.\nas §1, §2"}, "[3]": {"system": "human fetal lung mesenchymal cells (hFLMCs)", "test": "TGF-β1-induced collagen gel contractility of hFLMCs in 3D-collagen matrices", "type": "cell-based", "details": "catalase at 750 U/ml", "procedure": "as §3"}, "[4]": {"details": "DPI 1.6 mg/kg daily intra-peritoneal on days 8 to 21, day 21"}}, "data": [{"molecule": "c1ccc2c(c1)[I+]c1ccccc1-2", "note": "[DPI, diphenyleneiodonium chloride]", "values": [{"measurement": "protection from fibrosis, acid-soluble collagen in whole lung", "setting": "[1]; DPI 1.6 mg/kg daily intra-peritoneal on days 8 to 21, Sircol assay on day 21", "result": "significant protection from fibrosis"}, {"measurement": "expression of NOX4 and α-SMA expressing myofibroblasts (IHC)", "setting": "[1]; [4]", "result": "reduced expression"}, {"measurement": "fibrosis by histopathology and Masson's trichrome staining for collagen", "setting": "[1]; [4]", "result": "reduced fibrosis"}]}, {"molecule": "B1", "values": [{"measurement": "fibronectin synthesis induced by TGF-β1", "setting": "[2]", "result": "inhibited"}, {"measurement": "upregulation of α-smooth muscle actin (α-SMA) induced by TGF-β1", "setting": "[2]", "result": "inhibited"}, {"measurement": "TGF-β1-induced collagen gel contractility", "setting": "[3]", "result": "inhibited"}]}]}
